# How the values were obtained:
# [1] = target: Serine/threonine-protein kinase BRSK1 (Homo sapiens) (UniProt Q8TDC3)
# [2] = target: D(1A) dopamine receptor (Homo sapiens) (UniProt P21728); details: Compound concentration 10.0 uM
# [3] = target: RAF proto-oncogene serine/threonine-protein kinase (Homo sapiens) (UniProt P04049)
# [4] = target: Ribosomal protein S6 kinase alpha-3 (Homo sapiens) (UniProt P51812)
# [5] = tested on: Receptor-type tyrosine-protein kinase FLT3 (Homo sapiens), P36888 [UNDEFINED MUTATION]
# [6] = target: Fibroblast growth factor receptor 3 (Homo sapiens) (UniProt P22607)
# [7] = target: cGMP-dependent protein kinase 2 (Homo sapiens) (UniProt Q13237)
# [8] = target: Calcium/calmodulin-dependent protein kinase type II subunit delta (Homo sapiens) (UniProt Q13557)
# [9] = target: Serine/threonine-protein kinase 26 (Homo sapiens, UniProt Q9P289)
# [10] = target: LIM domain kinase 2 (Homo sapiens) (UniProt P53671)
# [11] = target: Fibroblast growth factor receptor 1 (Homo sapiens) (UniProt P11362)
# [12] = tested on: Receptor-type tyrosine-protein kinase FLT3 (Homo sapiens), P36888 [D835Y]
# [13] = target: Cyclin-dependent kinase 5 (Homo sapiens, UniProt Q00535)
# [14] = target: Serine/threonine-protein kinase Nek11 (Homo sapiens) (UniProt Q8NG66)
# [15] = target: Serine/threonine-protein kinase BRSK2 (Homo sapiens) (UniProt Q8IWQ3)
# [16] = target: cAMP-dependent protein kinase catalytic subunit PRKX (Homo sapiens) (UniProt P51817)
# [17] = target: Muscarinic acetylcholine receptor M3 (Homo sapiens) (UniProt P20309); details: Compound concentration 10.0 uM
# [18] = target: Activin receptor type-1-like (Homo sapiens) (UniProt P37023)
# [19] = target: Inhibitor of nuclear factor kappa-B kinase subunit beta (Homo sapiens) (UniProt O14920)
# [20] = target: D(3) dopamine receptor (Homo sapiens) (UniProt P35462); details: Compound concentration 10.0 uM
# [21] = target: Mitogen-activated protein kinase kinase kinase kinase 3 (Homo sapiens) (UniProt Q8IVH8)
# [22] = target: Cytoplasmic tyrosine-protein kinase BMX (Homo sapiens) (UniProt P51813)
# [23] = target: Interleukin-1 receptor-associated kinase 1 (Homo sapiens) (UniProt P51617)
# [24] = target: Serine/threonine-protein kinase TAO2 (Homo sapiens) (UniProt Q9UL54)
# [25] = target: Mitogen-activated protein kinase kinase kinase 2 (Homo sapiens) (UniProt Q9Y2U5)
# [26] = target: 5-hydroxytryptamine receptor 1D (Homo sapiens) (UniProt P28221); details: Compound concentration 10.0 uM
# [27] = tested on: Mast/stem cell growth factor receptor Kit (Homo sapiens), P10721 [D816H]
# [28] = target: Calcium/calmodulin-dependent protein kinase type II subunit gamma (Homo sapiens) (UniProt Q13555)
# [29] = target: Aurora kinase B (Homo sapiens) (UniProt Q96GD4)
# [30] = target: Receptor-type tyrosine-protein kinase FLT3 (Homo sapiens) (UniProt P36888)
# [31] = target: Phosphatidylinositol 3-kinase catalytic subunit type 3 (Homo sapiens) (UniProt Q8NEB9)
# [32] = target: Non-receptor tyrosine-protein kinase TYK2 (Homo sapiens) (UniProt P29597)
# [33] = target: Mitogen-activated protein kinase kinase kinase kinase 1 (Homo sapiens) (UniProt Q92918)
# [34] = target: Serine/threonine-protein kinase MARK2 (Homo sapiens, UniProt Q7KZI7)
# [35] = target: Serine/threonine-protein kinase 17A (Homo sapiens) (UniProt Q9UEE5)
# [36] = target: Casein kinase I isoform epsilon (Homo sapiens) (UniProt P49674)
# [37] = target: Microtubule-associated serine/threonine-protein kinase 1 (Homo sapiens) (UniProt Q9Y2H9)
# [38] = target: Serine/threonine-protein kinase D3 (Homo sapiens) (UniProt O94806)
# [39] = target: Mitogen-activated protein kinase kinase kinase 15 (Homo sapiens) (UniProt Q6ZN16)
# [40] = target: Dual specificity protein kinase CLK3 (Homo sapiens) (UniProt P49761)
# [41] = tested on: Mast/stem cell growth factor receptor Kit (Homo sapiens), P10721 [L576P]
# [42] = tested on: ALK tyrosine kinase receptor (Homo sapiens), Q9UM73 [L1196M]
# [43] = target: Macrophage colony-stimulating factor 1 receptor (Homo sapiens) (UniProt P07333)
# [44] = target: Kappa-type opioid receptor (Homo sapiens) (UniProt P41145); details: Compound concentration 10.0 uM
# [45] = target: Dual specificity tyrosine-phosphorylation-regulated kinase 1B (Homo sapiens) (UniProt Q9Y463)
# [46] = Compound concentration 1000.0 nM
# [47] = Compound concentration 100.0 nM
# Microtubule-associated serine/threonine-protein kinase 1 (Homo sapiens), sequence (Q9Y2H9 whole entry, looked up): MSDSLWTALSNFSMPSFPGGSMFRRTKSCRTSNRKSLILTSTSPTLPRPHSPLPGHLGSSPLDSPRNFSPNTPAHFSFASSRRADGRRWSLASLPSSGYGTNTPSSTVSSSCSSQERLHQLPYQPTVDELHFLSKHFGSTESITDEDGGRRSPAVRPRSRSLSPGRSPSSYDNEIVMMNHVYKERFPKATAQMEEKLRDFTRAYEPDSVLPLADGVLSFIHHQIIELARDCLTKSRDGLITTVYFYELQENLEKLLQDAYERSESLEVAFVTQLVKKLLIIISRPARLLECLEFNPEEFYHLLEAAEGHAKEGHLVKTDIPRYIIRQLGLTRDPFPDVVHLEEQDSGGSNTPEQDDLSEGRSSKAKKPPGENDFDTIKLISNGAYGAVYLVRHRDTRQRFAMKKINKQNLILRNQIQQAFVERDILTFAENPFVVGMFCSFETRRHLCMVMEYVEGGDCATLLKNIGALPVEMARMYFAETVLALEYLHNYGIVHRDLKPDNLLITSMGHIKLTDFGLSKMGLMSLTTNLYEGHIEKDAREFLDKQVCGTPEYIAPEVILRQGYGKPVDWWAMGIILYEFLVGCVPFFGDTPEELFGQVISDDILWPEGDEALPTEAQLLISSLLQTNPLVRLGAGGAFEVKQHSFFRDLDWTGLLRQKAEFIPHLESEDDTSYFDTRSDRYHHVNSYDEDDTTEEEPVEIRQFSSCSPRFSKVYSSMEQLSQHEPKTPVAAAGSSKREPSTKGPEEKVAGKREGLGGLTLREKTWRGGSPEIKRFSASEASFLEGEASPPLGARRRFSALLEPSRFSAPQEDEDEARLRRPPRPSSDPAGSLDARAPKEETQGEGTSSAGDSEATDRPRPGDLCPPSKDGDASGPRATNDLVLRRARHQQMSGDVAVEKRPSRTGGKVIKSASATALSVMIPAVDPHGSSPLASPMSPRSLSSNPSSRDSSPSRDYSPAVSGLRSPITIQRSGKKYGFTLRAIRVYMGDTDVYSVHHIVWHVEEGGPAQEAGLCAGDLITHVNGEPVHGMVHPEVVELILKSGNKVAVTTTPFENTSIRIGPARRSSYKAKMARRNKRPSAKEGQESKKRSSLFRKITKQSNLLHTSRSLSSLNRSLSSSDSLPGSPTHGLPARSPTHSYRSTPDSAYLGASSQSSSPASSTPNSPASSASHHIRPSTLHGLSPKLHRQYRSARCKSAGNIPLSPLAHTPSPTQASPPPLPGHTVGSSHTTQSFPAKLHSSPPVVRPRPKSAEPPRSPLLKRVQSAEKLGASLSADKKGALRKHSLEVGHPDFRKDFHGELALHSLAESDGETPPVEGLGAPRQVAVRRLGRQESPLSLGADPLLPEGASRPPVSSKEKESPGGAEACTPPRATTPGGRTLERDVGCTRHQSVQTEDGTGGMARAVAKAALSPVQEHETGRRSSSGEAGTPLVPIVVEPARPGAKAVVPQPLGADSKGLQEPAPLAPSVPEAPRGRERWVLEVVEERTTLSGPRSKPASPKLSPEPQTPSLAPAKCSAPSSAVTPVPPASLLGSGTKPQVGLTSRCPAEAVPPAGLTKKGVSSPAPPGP
# Phosphatidylinositol 3-kinase catalytic subunit type 3 (Homo sapiens), sequence (Q8NEB9 whole entry): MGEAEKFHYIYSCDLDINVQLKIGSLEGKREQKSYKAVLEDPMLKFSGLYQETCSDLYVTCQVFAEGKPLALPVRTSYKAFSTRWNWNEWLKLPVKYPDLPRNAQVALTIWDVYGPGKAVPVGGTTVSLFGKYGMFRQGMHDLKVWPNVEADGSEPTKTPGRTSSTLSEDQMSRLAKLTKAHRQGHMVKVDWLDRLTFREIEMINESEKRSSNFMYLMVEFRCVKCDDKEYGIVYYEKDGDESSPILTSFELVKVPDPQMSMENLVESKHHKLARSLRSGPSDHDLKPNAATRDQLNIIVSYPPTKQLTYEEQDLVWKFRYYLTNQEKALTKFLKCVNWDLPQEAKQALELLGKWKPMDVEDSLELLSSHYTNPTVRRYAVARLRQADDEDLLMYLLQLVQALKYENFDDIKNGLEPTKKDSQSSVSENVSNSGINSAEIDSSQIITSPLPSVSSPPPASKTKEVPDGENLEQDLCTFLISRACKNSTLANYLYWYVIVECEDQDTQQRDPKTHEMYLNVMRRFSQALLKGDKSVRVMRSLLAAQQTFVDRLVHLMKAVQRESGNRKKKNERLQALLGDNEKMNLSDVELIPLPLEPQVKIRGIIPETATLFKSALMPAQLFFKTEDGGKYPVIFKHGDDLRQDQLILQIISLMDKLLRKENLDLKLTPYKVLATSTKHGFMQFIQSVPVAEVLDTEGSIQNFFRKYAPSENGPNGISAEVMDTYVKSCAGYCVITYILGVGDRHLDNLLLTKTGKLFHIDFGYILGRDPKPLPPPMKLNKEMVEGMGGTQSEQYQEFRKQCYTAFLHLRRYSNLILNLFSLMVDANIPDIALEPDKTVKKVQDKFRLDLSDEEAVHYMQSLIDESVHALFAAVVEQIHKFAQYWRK
# Serine/threonine-protein kinase MARK2, sequence (Q7KZI7 whole entry): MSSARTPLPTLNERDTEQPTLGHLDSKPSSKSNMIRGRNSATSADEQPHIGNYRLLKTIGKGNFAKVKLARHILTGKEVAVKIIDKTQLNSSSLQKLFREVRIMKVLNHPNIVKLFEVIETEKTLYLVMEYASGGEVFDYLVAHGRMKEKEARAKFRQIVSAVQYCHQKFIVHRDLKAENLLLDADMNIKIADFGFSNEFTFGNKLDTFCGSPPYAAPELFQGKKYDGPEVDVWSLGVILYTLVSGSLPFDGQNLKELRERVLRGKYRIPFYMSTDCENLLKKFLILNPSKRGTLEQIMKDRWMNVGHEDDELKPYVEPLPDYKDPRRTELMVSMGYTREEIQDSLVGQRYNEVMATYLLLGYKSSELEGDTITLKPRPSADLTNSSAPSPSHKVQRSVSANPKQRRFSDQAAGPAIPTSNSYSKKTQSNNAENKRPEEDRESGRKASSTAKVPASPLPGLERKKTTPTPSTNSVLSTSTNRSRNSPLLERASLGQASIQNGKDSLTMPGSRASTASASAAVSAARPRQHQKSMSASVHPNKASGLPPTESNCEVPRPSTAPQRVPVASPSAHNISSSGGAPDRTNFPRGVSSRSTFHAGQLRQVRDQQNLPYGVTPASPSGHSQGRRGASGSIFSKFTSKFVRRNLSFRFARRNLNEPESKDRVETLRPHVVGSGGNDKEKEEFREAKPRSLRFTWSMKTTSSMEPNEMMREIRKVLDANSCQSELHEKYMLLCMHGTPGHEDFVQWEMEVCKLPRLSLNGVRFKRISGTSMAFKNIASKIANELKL
# Dual specificity protein kinase CLK3 (Homo sapiens), sequence (P49761 whole entry, looked up): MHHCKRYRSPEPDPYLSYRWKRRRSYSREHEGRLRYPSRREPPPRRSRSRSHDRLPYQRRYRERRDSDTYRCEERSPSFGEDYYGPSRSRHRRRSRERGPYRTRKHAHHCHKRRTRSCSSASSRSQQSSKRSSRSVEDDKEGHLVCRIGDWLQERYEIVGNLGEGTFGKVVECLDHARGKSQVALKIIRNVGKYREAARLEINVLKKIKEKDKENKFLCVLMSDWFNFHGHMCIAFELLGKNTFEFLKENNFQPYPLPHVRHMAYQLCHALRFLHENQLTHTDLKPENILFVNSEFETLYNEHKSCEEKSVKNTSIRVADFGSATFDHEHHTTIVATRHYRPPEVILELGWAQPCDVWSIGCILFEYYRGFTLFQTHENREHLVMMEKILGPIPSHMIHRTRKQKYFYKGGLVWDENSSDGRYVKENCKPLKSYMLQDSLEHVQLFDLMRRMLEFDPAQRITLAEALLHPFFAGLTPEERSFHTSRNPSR
# Activin receptor type-1-like (Homo sapiens), sequence (P37023 whole entry): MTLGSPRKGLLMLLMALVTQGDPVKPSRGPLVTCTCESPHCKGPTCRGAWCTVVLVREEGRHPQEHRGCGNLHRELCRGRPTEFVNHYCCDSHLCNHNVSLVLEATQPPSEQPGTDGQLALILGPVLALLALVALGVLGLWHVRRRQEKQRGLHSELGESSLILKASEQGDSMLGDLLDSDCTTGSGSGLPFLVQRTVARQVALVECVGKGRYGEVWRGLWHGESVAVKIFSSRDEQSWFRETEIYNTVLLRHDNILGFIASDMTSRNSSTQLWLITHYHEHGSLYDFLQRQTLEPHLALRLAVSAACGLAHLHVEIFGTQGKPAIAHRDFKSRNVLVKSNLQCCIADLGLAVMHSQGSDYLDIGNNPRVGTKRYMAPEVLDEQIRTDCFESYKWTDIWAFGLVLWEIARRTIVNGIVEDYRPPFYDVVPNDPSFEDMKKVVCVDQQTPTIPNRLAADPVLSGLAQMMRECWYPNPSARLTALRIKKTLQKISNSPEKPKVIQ
# cAMP-dependent protein kinase catalytic subunit PRKX (Homo sapiens), sequence (P51817 whole entry): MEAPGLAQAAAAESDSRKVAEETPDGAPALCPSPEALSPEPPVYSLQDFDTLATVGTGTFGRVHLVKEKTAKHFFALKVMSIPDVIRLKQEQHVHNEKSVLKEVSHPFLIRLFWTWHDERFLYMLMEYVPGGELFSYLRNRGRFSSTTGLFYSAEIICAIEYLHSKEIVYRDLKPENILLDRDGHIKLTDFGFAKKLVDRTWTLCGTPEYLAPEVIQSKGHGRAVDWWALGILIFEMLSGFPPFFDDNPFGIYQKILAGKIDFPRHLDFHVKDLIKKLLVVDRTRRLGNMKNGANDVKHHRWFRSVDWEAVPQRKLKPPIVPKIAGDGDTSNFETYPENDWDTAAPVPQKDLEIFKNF
# 5-hydroxytryptamine receptor 1D (Homo sapiens), sequence (P28221 whole entry): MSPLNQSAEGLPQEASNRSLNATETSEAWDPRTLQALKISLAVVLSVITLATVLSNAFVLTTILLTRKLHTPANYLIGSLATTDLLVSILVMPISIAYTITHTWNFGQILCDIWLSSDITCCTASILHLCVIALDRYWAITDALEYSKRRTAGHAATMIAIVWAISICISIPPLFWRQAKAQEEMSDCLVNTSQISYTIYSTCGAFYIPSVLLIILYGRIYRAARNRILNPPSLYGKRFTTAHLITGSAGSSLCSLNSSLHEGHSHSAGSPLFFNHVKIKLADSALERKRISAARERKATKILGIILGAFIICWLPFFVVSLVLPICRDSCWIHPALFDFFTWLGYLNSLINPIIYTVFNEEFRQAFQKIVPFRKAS
compound,measurement,setting,value
C[C@H](NC(=O)Nc1cc2[nH]ncc2c(CO)n1)c1ccccn1 [ERKi-NC],residual activity,[1]; [46],100%
same,inhibition,[2],4.28%
same,residual activity,[3]; [46],90.2%
same,residual activity,[4]; [46],80.7%
same,residual activity,[5]; [46],73.5%
same,residual activity,[6]; [46],81.8%
same,residual activity,[7]; [46],100%
same,residual activity,[8]; [46],81%
same,residual activity,[9]; [46],100%
same,residual activity,[10]; [46],96%
same,residual activity,[11]; [46],78%
same,residual activity,[12]; [46],96.8%
same,residual activity,[13]; [46],100%
same,residual activity,[14]; [46],57.7%
same,residual activity,[15]; [46],88%
same,residual activity,[16]; [46],100%
same,inhibition,[17],-1.84%
same,residual activity,[18]; [46],92.3%
same,residual activity,[19]; [46],100%
same,inhibition,[20],27.9%
same,residual activity,[21]; [46],100%
same,residual activity,[22]; [46],91.7%
same,residual activity,[23]; [46],100%
same,residual activity,[24]; [46],82.3%
same,residual activity,[25]; [46],98.4%
same,inhibition,[26],39.9%
same,residual activity,[27]; [46],89.4%
same,residual activity,[28]; [46],100%
same,residual activity,[29]; [46],79.8%
same,residual activity,[30]; [46],100%
same,residual activity,[31]; [46],97%
same,residual activity,[32]; [46],100%
same,residual activity,[33]; [46],93.8%
same,residual activity,[34]; [46],100%
same,residual activity,[35]; [46],100%
same,residual activity,[36]; [46],96.1%
same,residual activity,[37]; [46],100%
same,residual activity,[38]; [46],100%
same,residual activity,[39]; [46],100%
same,residual activity,[40]; [46],100%
same,residual activity,[41]; [46],100%
same,residual activity,[42]; [46],100%
same,residual activity,[43]; [46],94.8%
same,inhibition,[44],22.9%
same,residual activity,[45]; [46],57.6%
C[C@@H](NC(=O)Nc1cc2[nH]ncc2c(CO)n1)c1ccccc1 [ERKi],residual activity,[1]; [47],88.4%
same,inhibition,[2],-3.5%
same,residual activity,[3]; [47],100%
same,residual activity,[4]; [47],70%
same,residual activity,[5]; [47],100%
same,residual activity,[6]; [47],85.4%
same,residual activity,[7]; [47],76.1%
same,residual activity,[8]; [47],77.7%
same,residual activity,[9]; [47],94.9%
same,residual activity,[10]; [47],100%
same,residual activity,[11]; [47],94.1%
same,residual activity,[12]; [47],86.2%
same,residual activity,[13]; [47],100%
same,residual activity,[14]; [47],83.4%
same,residual activity,[15]; [47],89.3%
same,residual activity,[16]; [47],46.1%
same,inhibition,[17],-5.17%
same,residual activity,[18]; [47],90.9%
same,residual activity,[19]; [47],100%
same,inhibition,[20],-2.24%
same,residual activity,[21]; [47],84.5%
same,residual activity,[22]; [47],94.3%
same,residual activity,[23]; [47],54.8%
same,residual activity,[24]; [47],74.7%
same,residual activity,[25]; [47],87.3%
same,inhibition,[26],1.59%
same,residual activity,[27]; [47],86.9%
same,residual activity,[28]; [47],84.6%
same,residual activity,[29]; [47],100%
same,residual activity,[30]; [47],91.6%
same,residual activity,[31]; [47],71.2%
same,residual activity,[32]; [47],97.8%
same,residual activity,[33]; [47],96.9%
same,residual activity,[34]; [47],100%
same,residual activity,[35]; [47],88%
same,residual activity,[36]; [47],95.1%
same,residual activity,[37]; [47],93.9%
same,residual activity,[38]; [47],100%
same,residual activity,[39]; [47],100%
same,residual activity,[40]; [47],82.2%
same,residual activity,[41]; [47],72.1%
same,residual activity,[42]; [47],96.9%
same,residual activity,[43]; [47],87.3%
same,inhibition,[44],10.3%
same,residual activity,[45]; [47],95.9%
